Numbering of substitutions follows the chain as printed. Read-outs that look alike come from different tables or passages of the source. Blank lines part the entries; values can stand above or below the molecule they belong to.
Columns and labels:
[1] = biological target: T1, rat Y1 receptor (association with β-arrestin2) (Rattus norvegicus, UniProt P21555); format: cell-based
T1 sequence (P21555 2-382): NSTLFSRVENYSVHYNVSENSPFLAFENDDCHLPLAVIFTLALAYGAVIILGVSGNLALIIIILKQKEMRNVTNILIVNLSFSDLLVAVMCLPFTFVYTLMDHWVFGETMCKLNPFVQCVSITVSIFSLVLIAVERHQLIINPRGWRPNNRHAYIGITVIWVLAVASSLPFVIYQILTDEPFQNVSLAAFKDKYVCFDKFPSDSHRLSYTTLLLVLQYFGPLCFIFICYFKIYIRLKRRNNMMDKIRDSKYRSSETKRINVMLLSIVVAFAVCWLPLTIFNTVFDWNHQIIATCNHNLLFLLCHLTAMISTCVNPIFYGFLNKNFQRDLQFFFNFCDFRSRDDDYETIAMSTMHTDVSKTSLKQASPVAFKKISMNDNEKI

[2] = biological target: Y1 receptor (Y1–YFP) (Rattus norvegicus, UniProt P21555); format: cell-based
[3] = tested on: Y1 receptor ΔY346; format: binding, rat
[4] = biological target: T2, Y1 receptor (Rattus norvegicus, UniProt P21555); assay: [125I]PYY competition binding, Y1/βarr2 membranes; conditions: inhibition of [125I]PYY specific binding
T2 sequence (P21555 2-382): T1 sequence (P21555 2-382)

[5] = biological target: T3, Y1 receptor 5A (Rattus norvegicus, UniProt P21555, S352A/S359A/S362A/T353A/T361A); assay: [125I]PYY competition binding, Y1 5A/βarr2 membranes
T3 sequence (P21555 1-382 S352A/T353A/S359A/T361A/S362A): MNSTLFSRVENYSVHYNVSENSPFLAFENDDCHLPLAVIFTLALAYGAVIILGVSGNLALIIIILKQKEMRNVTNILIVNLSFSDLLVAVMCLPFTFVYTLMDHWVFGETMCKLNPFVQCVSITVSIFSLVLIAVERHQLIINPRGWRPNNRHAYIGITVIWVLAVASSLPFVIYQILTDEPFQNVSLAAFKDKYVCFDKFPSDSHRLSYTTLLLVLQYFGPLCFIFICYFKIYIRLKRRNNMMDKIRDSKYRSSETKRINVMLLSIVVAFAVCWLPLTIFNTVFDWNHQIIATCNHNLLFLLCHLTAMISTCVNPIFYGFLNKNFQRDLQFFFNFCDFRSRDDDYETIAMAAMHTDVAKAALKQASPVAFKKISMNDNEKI

[6] = biological target: T4, Y2 receptor (Homo sapiens, UniProt P49146); format: binding
T4 sequence (P49146 1-381): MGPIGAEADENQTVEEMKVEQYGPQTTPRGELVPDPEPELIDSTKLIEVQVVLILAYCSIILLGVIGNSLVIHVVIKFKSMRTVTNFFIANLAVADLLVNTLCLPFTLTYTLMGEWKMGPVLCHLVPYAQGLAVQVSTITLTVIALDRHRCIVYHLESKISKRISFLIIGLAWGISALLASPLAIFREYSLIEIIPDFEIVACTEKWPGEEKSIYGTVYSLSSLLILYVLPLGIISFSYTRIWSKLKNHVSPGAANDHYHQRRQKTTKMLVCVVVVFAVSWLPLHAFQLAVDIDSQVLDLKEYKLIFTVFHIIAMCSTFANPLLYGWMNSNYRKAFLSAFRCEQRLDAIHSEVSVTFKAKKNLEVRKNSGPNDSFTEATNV

[7] = biological target: T5, Y1 receptor STA (S352A, T353A) (Rattus norvegicus, UniProt P21555, S352A/T353A); assay: [125I]PYY competition binding, Y1 STA/βarr2 membranes
T5 sequence (P21555 2-382 S352A/T353A): T1 sequence (P21555 2-382) with S351A, T352A

[8] = biological target: T6, Y1 receptor STA, TSA (Rattus norvegicus, UniProt P21555, S352A/S362A/T353A/T361A); assay: [125I]PYY competition binding, Y1 STA, TSA/βarr2 membranes
T6 sequence (P21555 2-382 S352A/T353A/T361A/S362A): T1 sequence (P21555 2-382) with S351A, T352A, T360A, S361A

[9] = biological target: T7, Y1 receptor S359A (Rattus norvegicus, UniProt P21555, S359A); assay: [125I]PYY competition binding, Y1 S359A/βarr2 membranes
T7 sequence (P21555 2-382 S359A): T1 sequence (P21555 2-382) with S358A

[10] = biological target: T8, Y1 receptor TSA (T361A, S362A) (Rattus norvegicus, UniProt P21555, S362A/T361A); assay: [125I]PYY competition binding, Y1 TSA/βarr2 membranes
T8 sequence (P21555 2-382 T361A/S362A): T1 sequence (P21555 2-382) with T360A, S361A

[11] = biological target: T9, Y1 receptor T356A (Rattus norvegicus, UniProt P21555, T356A); assay: [125I]PYY competition binding, Y1 T356A/βarr2 membranes
T9 sequence (P21555 2-382 T356A): T1 sequence (P21555 2-382) with T355A

[12] = biological target: T10, Y1 receptor T356A, S359A, TSA (Rattus norvegicus, UniProt P21555, S359A/S362A/T356A/T361A); assay: [125I]PYY competition binding, Y1 T356A, S359A, TSA/βarr2 membranes
T10 sequence (P21555 2-382 T356A/S359A/T361A/S362A): T1 sequence (P21555 2-382) with T355A, S358A, T360A, S361A

[13] = biological target: T11, Y2 receptor H155P (Homo sapiens, UniProt P49146, H155P); format: binding
T11 sequence (P49146 1-381 H155P): T4 sequence (P49146 1-381) with H155P

[14] = biological target: T12, Y1 receptor 6A (Rattus norvegicus, UniProt P21555, S352A/S359A/S362A/T353A/T356A/T361A); assay: [125I]PYY competition binding, Y1 6A/βarr2 membranes
T12 sequence (P21555 1-382 S352A/T353A/T356A/S359A/T361A/S362A): T3 sequence (P21555 1-382 S352A/T353A/S359A/T361A/S362A) with T356A

[15] = 30 min pre-incubation, NPY 60 min
[16] = example triplicate experiment, Figure 6
[17] = inhibition of [125I]PYY specific binding

Sequence of Y1 receptor (Y1–YFP) (P21555 whole entry): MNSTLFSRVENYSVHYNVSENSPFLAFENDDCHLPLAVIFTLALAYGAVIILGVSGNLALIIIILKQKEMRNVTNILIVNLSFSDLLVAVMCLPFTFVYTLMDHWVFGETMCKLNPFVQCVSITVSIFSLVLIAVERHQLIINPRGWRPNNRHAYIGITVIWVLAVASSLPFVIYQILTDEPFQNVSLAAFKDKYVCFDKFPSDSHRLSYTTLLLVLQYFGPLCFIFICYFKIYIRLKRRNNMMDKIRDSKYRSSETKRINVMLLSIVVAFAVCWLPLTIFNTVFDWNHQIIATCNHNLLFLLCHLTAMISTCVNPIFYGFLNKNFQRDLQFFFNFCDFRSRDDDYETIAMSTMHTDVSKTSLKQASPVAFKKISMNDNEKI

Schild slope, example experiment [1]: 1.1
Schild slope, pooled [1]: 1.1 ± 0.1
effect of antagonist alone on Y1/βarr2 BiFC, % of 1 µM NPY response [1]: −4.5 ± 10.0%
Molecule: N=C(N)NCCC[C@@H](NC(=O)C(c1ccccc1)c1ccccc1)C(=O)NCc1ccc(O)cc1 [BIBP3226, (R)-N2-(diphenylacetyl)-N-[(4-hydroxyphenyl)methyl]-argininamide]

Schild slope, pooled [1, 15]: 1.5 ± 0.2
pA2 (Schild plot), pooled [1, 15]: 8.6 ± 0.2
agonist activity for stimulation of Y1/βarr2 BiFC ([1]; 1 h incubation): inactive
Schild slope, example experiment [1, 16]: 1.9
pA2 (Schild plot), example experiment [1, 16]: 8.3
agonist activity in Y1–YFP endocytosis assay [2]: inactive
Molecule: homodimeric Ile-Glu-Pro-Dpr-Tyr-Arg-Leu-Arg-Tyr-CONH2 [GR231118]

GTPγS 1 µM inhibition (%), Y1 ΔY346 ([3]; 1 µM GTPγS): 61.9 ± 8.8%
GTPγS pIC50, Y1 ΔY346 [3, 17]: 8.57 ± 0.04
GTPγS 1 µM inhibition (%), Y1 ([4]; 1 µM GTPγS): 58.6 ± 4.1%
GTPγS pIC50, Y1 ([4]; 30 µg·mL−1 saponin): 9.05 ± 0.21
GTPγS 1 µM inhibition (%), Y1 5A ([5]; 1 µM GTPγS): 55.7 ± 3.4%
GTPγS pIC50, Y1 5A [5, 17]: 8.81 ± 0.28
GTPγS 1 µM inhibition (%), Y2 ([6]; 1 µM GTPγS): 73.8 ± 3.5%
GTPγS pIC50, Y2 [6, 17]: 9.19 ± 0.11
GTPγS 1 µM inhibition (%), Y1 STA ([7]; 1 µM GTPγS): 61.4 ± 4.0%
GTPγS pIC50, Y1 STA [7, 17]: 9.00 ± 0.15
GTPγS 1 µM inhibition (%), Y1 STA, TSA ([8]; 1 µM GTPγS): 58.2 ± 5.0%
GTPγS pIC50, Y1 STA, TSA [8, 17]: 9.03 ± 0.26
GTPγS 1 µM inhibition (%), Y1 S359A ([9]; 1 µM GTPγS): 54.7 ± 3.5%
GTPγS pIC50, Y1 S359A [9, 17]: 9.18 ± 0.08
GTPγS 1 µM inhibition (%), Y1 TSA ([10]; 1 µM GTPγS): 51.4 ± 4.9%
GTPγS pIC50, Y1 TSA [10, 17]: 9.40 ± 0.10
GTPγS 1 µM inhibition (%), Y1 T356A ([11]; 1 µM GTPγS): 48.3 ± 4.7%
GTPγS pIC50, Y1 T356A [11, 17]: 8.97 ± 0.17
GTPγS 1 µM inhibition (%), Y1 T356A, S359A, TSA ([12]; 1 µM GTPγS): 53.0 ± 7.4%
GTPγS pIC50, Y1 T356A, S359A, TSA [12, 17]: 9.21 ± 0.20
GTPγS 1 µM inhibition (%), Y2 H155P ([13]; 1 µM GTPγS): 70.2 ± 5.3%
GTPγS pIC50, Y2 H155P [13, 17]: 9.17 ± 0.05
GTPγS 1 µM inhibition (%), Y1 6A ([14]; 1 µM GTPγS): 63.2 ± 1.2%
GTPγS pIC50, Y1 6A [14, 17]: 9.04 ± 0.02
Molecule: Nc1nc2c(ncn2[C@@H]2O[C@H](COP(=O)(O)OP(=O)(O)OP(O)(O)=S)[C@@H](O)[C@H]2O)c(=O)[nH]1 [GTPγS, guanosine-5′-O-(3-thio)triphosphate]

From paper PMC2901518 (British Journal of Pharmacology, 2010)
